Experiment [1] concerns the target T1, wild type P450cam (Pseudomonas putida, UniProt P00183). As to the kind of experiment: Turnover rate measured as NADH consumption rate, wild type. Format: biochemical, P. putida. Also on record: reconstituted with putidaredoxin and putidaredoxin reductase.
For experiment [2], the target named is T2, P450cam mutant Y96A, C334A (Pseudomonas putida, UniProt P00183, C335A/Y97A).
T2 construct: reconstituted with putidaredoxin and putidaredoxin reductase
Format: biochemical, P. putida. The conditions noted are these: also contains C334A. The method, then: (§1) A solution containing 10 μM putidaredoxin, 2 μM putidaredoxin reductase, 1 μM cytochrome P-450cam mono-oyxgenase (wild-type or mutant) and 1 mM diphenylmethane in 100 mM KC1, 20 mM KH2 PO4 pH7.4 was preincubated at 25° C. in a shaker for 5 min. The enzymatic reaction was initiated by firstly adding NADH to a total concentration of 2 mM. Further four aliquots of NADH (to increase the NADH concentration by 1 mM each time) were added in intervals of 5 min and the reaction quenched after 30 min by adding 0.5 ml chloroform. The chloroform layer was analysed by gas chromatography.
(§2) Reaction products for some substrate compounds have been purified by high performance liquid chromatography and identified by mass spectroscopy, nuclear magnetic resonance, and/or co-elution. […] Table 4(a) to 4(h) details the product distributions for mutant and substrate combinations where this has been elucidated to date.
All mutants listed below also contain the C334A mutation.
Turnover rate measured as NADH consumption rate
(nmole NADH/nmole P450cam/s).

Experiment [3] has as its target T3, P-450cam mutant Y96A (Pseudomonas putida, UniProt P00183, Y97A). As to the kind of experiment: biochemical. Type of experiment: binding. As to conditions: Mutant Y96A; 200 μM DTT, 200 μM test compound, phosphate buffer; read-out: Vs DTT (percentage displacement of DTT bound to P-450).
Experiment [4] deals with T4, P450cam mutant Y96F, C334A (Pseudomonas putida, UniProt P00183, C335A/Y97F).
T4 construct: reconstituted with putidaredoxin and putidaredoxin reductase
Type of experiment: biochemical, P. putida. How it is done: (§3) […] The enzymatic reaction was initiated by firstly adding NADH to a total concentration of 2 mM. Further four aliquots of NADH (to increase the NADH concentration by 1 mM each time) were added in intervals of 5 min and the reaction quenched after 30 min by adding 0.5 ml chloroform. The chloroform layer was analysed by gas chromatography.
as §2
(§4) Product structure and distributions following oxidation of substrates
(§5) active site mutants. All mutants shown below also contain the C334A

Experiment [5] concerns the target T2, P450cam mutant Y96A, C334A. Type of experiment: biochemical, P. putida. The method, then: as §3, §2, §4, §5
Experiment [6] addresses T5, P450cam mutant F87A-F96G-F193A (C334A) (Pseudomonas putida, UniProt P00183, C335A/F194A/F88A/Y97G).
T5 construct: reconstituted with putidaredoxin and putidaredoxin reductase
Format: biochemical, P. putida. How it is done:
as §3, §2, §4, §5

Experiment [7] concerns the target T3, P-450cam mutant Y96A. Format: biochemical. Also on record: key: Those substrates where oxidation has been demonstrated by means of NADH turnover are marked with a + sign.
Experiment [8] deals with T6, P450cam mutant Y96V, C334A (Pseudomonas putida, UniProt P00183, C335A/Y97V).
T6 construct: reconstituted with putidaredoxin and putidaredoxin reductase
Description: Product distribution following oxidation of substrates, Y96V (also C334A). Format: biochemical, P. putida. How it is done: as §3, §2, §4, §5

Experiment [9] addresses T7, P450cam mutant Y96L, C334A (Pseudomonas putida, UniProt P00183, C335A/Y97L).
T7 construct: reconstituted with putidaredoxin and putidaredoxin reductase
Description: Product distribution following oxidation of substrates, Y96L (also C334A). Type of experiment: biochemical, P. putida. How it is done: as §3, §2, §4, §5

For experiment [10], the target named is T1, wild type P450cam. Description: Product distribution following oxidation of substrates, WT. Format: biochemical, P. putida. The arrangement: reconstituted with putidaredoxin and putidaredoxin reductase. The method, then: as §3, §2, §4
Experiment [11] deals with T3, P-450cam mutant Y96A. Format: binding.
Experiment [12] deals with P-450cam. As to conditions: wild-type; cited from earlier work.
In experiment [13] the target is T3, P-450cam mutant Y96A. Description: Kapp (dissociation constant), substrate binding, Y96A. The conditions noted are these: for dissociation constants (Kapp) / affinity, in words: Y96A compared to wild-type. How it is done:
(§6) Binding of potential substrates was investigated by spectroscopic methods.
(§7) ^a Values are the average of two independent measurements using the
(§8) method of Sligar (S. G. Sligar, Biochemistry, 1976, 15, 5399-5406). The
(§9) value of Kapp is strongly dependent on the concentration of K^+
(§10) in the buffer. At [K^+ ] > 150 mM. Kapp for camphor is 0.6 μM
(§11) for both wildtype and Y96A. Data in this table were determined at [K^
(§12) ] = 70 mM in phosphate buffer, pH 7.4, in order to avoid salting out of
(§13) substrates at higher ion concentrations.
(§14) ^b Saturation not reached.

Experiment [14] has as its target T3, P-450cam mutant Y96A. As to the kind of experiment: Hydroxylation of camphor, Y96A. Format: biochemical. The conditions noted are these: Y96A compared to wild-type. An excerpt: This decrease in selectivity can be attributed to the loss of the hydrogen bond between Y96 and camphor.
Experiment [15] concerns the target T1, wild type P450cam. Description: Kapp (dissociation constant), substrate binding, wild-type. As to conditions: for Kd: WT, [K+] = 70 mM, phosphate buffer, pH 7.4, average of two measurements. How it is done:
as §6, §7, §8, §9, §10, §11, §12, §13, §14

For experiment [16], the target named is T1, wild type P450cam. Format: binding. As to conditions: for conversion of haem to high-spin form / shift in absorption spectrum, in words: wild-type.
In experiment [17] the target is T1, wild type P450cam. Description: biochemical. Type of experiment: binding. As to conditions: Wild type; 200 μM DTT, 200 μM test compound, phosphate buffer; read-out: Vs DTT (percentage displacement of DTT bound to P-450).
Experiment [18] addresses T3, P-450cam mutant Y96A. Description: Gas chromatography of incubation products, Y96A. Format: biochemical. The conditions noted are these: 1 mM diphenylmethane, 1 μM P-450cam, 25° C., 30 min. How it is done:
The mutant protein was reconstituted with putidaredoxin and putidaredoxin reductase. Diphenylmethane (5) was added and the mixture was incubated with NADH and oxygen.
as §1
Organic extracts of the crude incubation mixture were analysed by gas chromatography. […] The other aromatic hydroxylation products, the ortho and meta isomers, had different retention times. Further confirmation of the identity of the product as structure (6) was provided by mass spectrometry, which gave the correct mass peak at 184.

Each structure is given as a SMILES string. Some results are limits rather than exact numbers.

Regarding `CC(C)CC(C)(C)C` [2,2,4-trimethyl pentane], the entries for the “Turnover rate measured as NADH consumption rate” value (shortened to “Turnover rate measured”) in experiment [1] and in experiment [2] were 0.9 nmole NADH/nmole P450cam/s and 5.3 nmole NADH/nmole P450cam/s, respectively.
The like results for `CCCC(C)(C)C` [2,2-dimethyl pentane] were, in that order, 5.2 nmole NADH/nmole P450cam/s and 12.8 nmole NADH/nmole P450cam/s.
The like results for `CC(C)CC(C)C` [2,4-dimethyl pentane] were, in that order, 0.2 nmole NADH/nmole P450cam/s and 12.6 nmole NADH/nmole P450cam/s.
The matching figures for `CCCC(C)C` [2-methyl pentane]: 3.8 nmole NADH/nmole P450cam/s and 11.7 nmole NADH/nmole P450cam/s.
In the case of `CCC(C)CC` [3-methyl pentane], the “Turnover rate measured” value in [1] is 1.3 nmole NADH/nmole P450cam/s; in experiment [2] it was 14.2 nmole NADH/nmole P450cam/s.
The matching figures for `CCCC(C)CCC` [4-methyl heptane]: 1.4 nmole NADH/nmole P450cam/s and 10.2 nmole NADH/nmole P450cam/s.
As for `c1ccc2c(c1)ccc1ccccc12` [Phenanthrene], in [3], the percent displacement of bound DTT at 200 µM turned out to be 20%. In addition, the Total products in experiment [4] was 4.5 area/10^6; in [5] it was 7.0 area/10^6; in experiment [6], 0.065 area/10^6; in [8], 1.6 area/10^6; in experiment [9], 2.8 area/10^6; in experiment [10] it was 0.075 area/10^6. The “Products (%): A” value came to 41% in [4] (phenanthrene); 49% in experiment [5] (phenanthrene); 27% in experiment [6] (phenanthrene); 41% in [8] (phenanthrene); 35.5% in [9] (phenanthrene); 38% in experiment [10] (phenanthrene). The “Products (%): B” value is recorded as 31% in experiment [4] (phenanthrene); 23% in [5] (phenanthrene); 41% in experiment [6] (phenanthrene); 38% in [8] (phenanthrene); 41% in experiment [9] (phenanthrene); 15% in experiment [10] (phenanthrene). For the same compound, the “Products (%): C” value was found to be 5% in experiment [4] (phenanthrene); 13% in experiment [5] (phenanthrene); 3% in experiment [6] (phenanthrene); 11% in experiment [8] (phenanthrene); 9% in experiment [9] (phenanthrene); 12% in experiment [10] (phenanthrene). Also, the “Products (%): D” value was determined as 23% in [4] (phenanthrene); 15% in [5] (phenanthrene); 29% in [6] (phenanthrene); 10% in experiment [8] (phenanthrene); 14.5% in experiment [9] (phenanthrene); 35% in [10] (phenanthrene). The “NADH turnover?” value in experiment [7] is reported as “+”.
In the case of `CC12CCC(CC1=O)C2(C)C` (centres unmarked) [compound 1, camphor], in experiment [11], the “conversion of haem to high-spin form, in words” value was “not fully converted to the high-spin form”. In experiment [12], the “hydroxylation to 5-exo-hydroxycamphor, in words” value is “regio- and stereo-selective hydroxylation”. Further, the Kd – broadly, the equilibrium constant for the complex coming apart – in experiment [13] came to 12 µM; in experiment [15] it was 6.3 µM. Further, the “dissociation constants (Kapp) / affinity, in words” value in [13] is reported as “increased”. The “hydroxylation selectivity, in words” value in experiment [14] is listed as “less selective”.
Regarding `O=C1C2CC3CC(C2)CC1C3` [compound 2, adamantanone], the “conversion of haem to high-spin form / shift in absorption spectrum, in words” value in [16] is given as “fully converted the haem to the high-spin form”. Also, in experiment [11], the “conversion of haem to high-spin form, in words” value is “not fully converted to the high-spin form”. Further, in [13], the Kd is 28 µM and the “dissociation constants (Kapp) / affinity, in words” value was “increased”. For the same compound, in experiment [15], the Kd is 12 µM.
In the case of `C1C2CC3CC1CC(C2)C3` [compound 3, adamantane], in experiment [16], the “conversion of haem to high-spin form / shift in absorption spectrum, in words” value was “fully converted the haem to the high-spin form”. Moreover, the Kd in [13] is 1.4 µM; in [15] it was 8.4 µM. Also, the “dissociation constants (Kapp) / affinity, in words” value in experiment [13] is “reduced”.
Take `C1CC2CCC1C2` [compound 4, norbornane]: the “conversion of haem to high-spin form / shift in absorption spectrum, in words” value in experiment [16] is listed as “fully converted the haem to the high-spin form”. Further, the Kd in [13] came to 92 µM; in experiment [15] it was 330 µM. Also, the “dissociation constants (Kapp) / affinity, in words” value in experiment [13] is reported as “reduced”.
Take `c1ccc(Cc2ccccc2)cc1` [compound 5, diphenylmethane]: the “conversion of haem to high-spin form / shift in absorption spectrum, in words” value in experiment [16] is “did not give a shift in the absorption spectrum”. Also, the “conversion of haem to high-spin form, in words” value in [11] is “partial conversion”. The “NADH turnover?” value in experiment [7] is on record as “+”. In addition, the inhibition at 200 µM in experiment [17] was 5%. In [13], binding was put at a Kd of 73 µM and the “dissociation constants (Kapp) / affinity, in words” value is on record as “greatly enhanced affinity”. Further, the “new product peak by GC (para-hydroxydiphenylmethane (6))” value in experiment [18] is “Only one major new peak”. This compound also had a Kd in [15] of more than 1500 µM. For the same compound, the “binding, in words” value in [15] (wild-type) was “bound poorly”.
Regarding `C1CCCCCC1` [cycloheptane], the results for the “Turnover rate measured” value in experiment [1] and in experiment [2] were 4.4 nmole NADH/nmole P450cam/s and 42.5 nmole NADH/nmole P450cam/s, respectively.
For `CCCCCCC` [n-Heptane], the “ΔSpin high/low (percentage of P-450 converted from low- to high-spin)” value in experiment [16] (Wild type, 200 μM test compound, phosphate buffer pH 7.4) was determined as 5%. Further, the percent displacement of bound DTT at 200 µM in experiment [3] is 40%. Also, the results for the “Turnover rate measured” value in experiment [1] and in experiment [2] were 2.7 nmole NADH/nmole P450cam/s and 4.4 nmole NADH/nmole P450cam/s, respectively. For the same compound, the “NADH turnover?” value in experiment [7] is listed as “+”. Further, the inhibition at 200 µM in [17] is 5%.

The values are drawn from patent US6100074A, “Mutant mono-oxygenase cytochrome P-450 cam” (BG plc, priority 1994, dated 2000).
